In patent US6479460B1, “Synthetic peptides and pseudopeptides having osteogenic activity and pharmaceutical compositions containing the same” (Yissum Research Development Company of the Hebrew …, priority 1996, dated 2002):
Primed or numbered codes have the meaning given here. Where no end group is shown, it is not given here. [ ]: non-standard residue; d: D form. The star is where a group is joined. ol = C-terminal alcohol (reduced C-terminus); Desaminotyrosyl = O=C(CCc1ccc(O)cc1)*; Hydrocinnamoyl = O=C(CCc1ccccc1)*; NMeF = CN[C@@H](Cc1ccccc1)C(=O)O; ol″ = C-terminal alcohol; Propionyl = CCC(=O)*; GABA = NCCCC(=O)O; βAla = NCCC(=O)O; Sar = CNCC(=O)O

Legend:
[1] = tested on: osteoblastic MC3T3 E1 cells; test: Proliferation assay, osteoblastic MC3T3 E1 cells; assay type: cell-based; conditions: for Relative in vitro potency (95% confidence limit) MC3T3 E1 cells: analog concentration 10^−13M, mean cell number relative to positive control OGP(1-14) = 1.00
Description: (§1) Some of the analogs were subjected to a dose response analysis.

[2] = tested on: fibroblastic NIH 3T3 cells; test: Proliferation assay, fibroblastic NIH 3T3 cells; assay type: cell-based; conditions: for Relative in vitro potency (95% confidence limit) NIH 3T3 cells: analog concentration 10^−11M, mean cell number relative to positive control OGP(1-14) = 1.00
Description: as §1

| Substance | Relative in vitro potency (95% confidence limit) MC3T3 E1 cells [1] | Relative in vitro potency (95% confidence limit) NIH 3T3 cells [2] | activity compared to OGP(1-14) ([1]; MC3T3 E1 cells) | activity compared to OGP(1-14) ([2]; NIH3T3 cells) |
| --- | --- | --- | --- | --- |
| (desamino[Phe^10]2OGP(10-14) | 0.18 | 0.24 | – | – |
| Nα-Ac—OGP(11-14) (Ac-GFGG) | 0.21 | 0.22 | – | – |
| OGP(11-14)-ol (GFGG-{ol″}) | 0.24 | 0.38 | – | – |
| [Ala^10]OGP(10-14) (AGFGG) | 0.29 | 0.17 | – | – |
| [Ala^11]OGP(10-14) (YAFGG) | 0.18 | 0.31 | – | – |
| [Ala^13]OGP(11-14) (GFAG) | 0.22 | 0.10 | – | – |
| [Ala^14]OGP(11-14) (GFGA) | 0.17 | 0.10 | – | – |
| [D-Ala^10]OGP(10-14) | 0.12 | 0.16 | – | – |
| [D-Ala^13]OGP(10-14) | 0.14 | 0.26 | – | – |
| [Phe^10]OGP(10-14) (FGFGG) | 0.41 | 0.32 | – | – |
| [β-Ala^11]OGP(10-14) (Y[βAla]FGG) | 0.29 | 0.17 | – | – |
| c(Gly-Tyr-Gly-Phe-Gly-Asp)-OH (GYGFGD-OH; lactam (positions not given here); also: cyclic, closure site not given here) | 0.15 | 0.16 | – | – |
| c(Gly-Tyr-Gly-Phe-Gly-Gly) (GYGFGG; cyclic) | 0.26 | 0.20 | – | – |
| c(Tyr-Cly-Phe-Gly) (YGFG; cyclic) | 0.35 | 0.43 | – | – |
| c(Tyr-Gly-Phe-Gly-Asp)-OH (YGFGD-OH; lactam (positions not given here); also: cyclic, closure site not given here) | 0.14 | 0.11 | – | – |
| c(β-Ala-Tyr-Gly-Phe-Gly-Gly) (cyclo([βAla]YGFGG); SMILES O=C1CNC(=O)CNC(=O)[C@H](Cc2ccccc2)NC(=O)CNC(=O)[C@H](Cc2ccc(O)cc2)NC(=O)CCN1) | 0.36 | 0.37 | – | – |
| c(γ-Abu-Tyr-Gly-Phe-Gly-Gly) (cyclo([GABA]YGFGG); SMILES O=C1CNC(=O)CNC(=O)[C@H](Cc2ccccc2)NC(=O)CNC(=O)[C@H](Cc2ccc(O)cc2)NC(=O)CCCN1) | 0.20 | 0.22 | – | – |
| c(δ-Ala-Tyr-Gly-Phe-Gly-Asp)-OH | 0.20 | 0.11 | – | – |
| c(δ-Ala-Tyr-Gly-Phe-Gly-Gly) | 0.14 | 0.18 | – | – |
| des[Gly^11]OGP(10-14) | 0.21 | 0.17 | – | – |
| desamino Tyr-CH2-Gly-Phe-Gly-Gly ([Desaminotyrosyl]GFGG; also: reduced amide bond Tyr-CH2-Gly) [desamino[Tyr^10ψ(CH2NH)Gly^11]OGP(10-14)] | 0.81 | 0.79 | – | – |
| desamino Tyr-Gly-N(CH3)-CH(CH2C6H5)-C(O)-Gly-Gly ([Desaminotyrosyl]G[NMeF]GG) [desamino[Tyr^10,N(Me)-Phe^12]OGP(10-14)] | 0.52 | 0.67 | – | – |
| desamino Tyr-Gly-NH-CH(CH2C6H5)-CH2-Gly-Gly ([Desaminotyrosyl]GFGG; also: reduced amide bond Phe-Gly (NH-CH(CH2C6H5)-CH2-NH)) | 0.70 | 0.88 | – | – |

| Substance | Relative in vitro potency (95% confidence limit) MC3T3 E1 cells [1] | Relative in vitro potency (95% confidence limit) NIH 3T3 cells [2] | activity compared to OGP(1-14) ([1]; MC3T3 E1 cells) | activity compared to OGP(1-14) ([2]; NIH3T3 cells) |
| --- | --- | --- | --- | --- |
| desamino Tyr-Gly-Phe-NH-CH2-CH2-CH2-CH2-C(O)-OH | 0.78 | 0.188 | – | – |
| desamino Tyr-Gly-Phe-NH-CH2-CH2-Gly (YGFGG; not fully specified; desamino Tyr10; reduced CH2NH bond Gly13-Gly14) | 0.78 | 0.80 | – | – |
| desamino Tyr-NH-CH2-CH2-Phe-Gly-Gly ([Desaminotyrosyl]GFGG; also: Gly2-Phe3 bond reduced, ψ(CH2NH)) | 0.61 | 0.67 | – | – |
| desamino[Ala^10]OGP(10-14) ([Propionyl]GFGG) | 0.28 | 0.09 | – | – |
| desamino[Phe^10]OGP(10-14) ([Hydrocinnamoyl]GFGG) | 0.35 | 0.48 | – | – |
| desamino[Tyr^10,Ala^12]OGP(10-14) [desamino[Tyr^10,Ala^12]OGP(10-14) (SEQ ID NO: 20)] | 0.41 | 0.43 | – | – |
| desamino[Tyr^10,Ala^12]OGP(10-14) [desamino[Tyr^10,Ala^12]OGP(10-14) (SEQ ID NO: 21)] ([Desaminotyrosyl]GAGG) | 0.21 | 0.16 | – | – |
| desamino[Tyr^10,Ala^13]OGP(10-14) ([Desaminotyrosyl]GFAG) | 0.27 | 0.15 | – | – |
| desamino[Tyr^10,Ala^14]OGP(10-14) ([Desaminotyrosyl]GFGA) | 0.19 | 0.16 | – | – |
| desamino[Tyr^10,D-Ala^11]OGP(10-14) | 0.21 | 0.19 | – | – |
| desamino[Tyr^10,D-Ala^12]OGP(10-14) | 0.30 | 0.02 | – | – |
| desamino[Tyr^10,D-Ala^13]OGP(10-14) | 0.28 | 0.23 | – | – |
| desamino[Tyr^10,D-Ala^14]OGP(10-14) | 0.41 | 0.32 | – | – |
| desamino[Tyr^10,Sar^11]OGP(10-14) [desamino[Tyr^10,Sar^11]OGP(10-14) (SEQ ID NO: 31)] ([Desaminotyrosyl][Sar]FGG) | 0.31 | 0.39 | – | – |
| desamino[Tyr^10,Sar^11]OGP(10-14) [desamino[Tyr^10,Sar^11]OGP(10-14) (SEQ ID NO: 34)] | 0.16 | 0.14) | – | – |
| desamino[Tyr^10,Sar^13]OGP(10-14) ([Desaminotyrosyl]GF[Sar]G) | 0.15 | 0.11 | – | – |
| desamino[Tyr^10]OGP(10-13)—NH(CH2)2NH2 ([Desaminotyrosyl]GFG-{NH(CH2)2NH2}) | 0.18 | 0.17 | – | – |
| desamino[Tyr^10]OGP(10-13)—NHEt ([Desaminotyrosyl]GFG-NHEt; SMILES CCNC(=O)CNC(=O)[C@H](Cc1ccccc1)NC(=O)CNC(=O)CCc1ccc(O)cc1) | 0.19 | 0.20 | – | – |
| desamino[Tyr^10]OGP(10-14)—N(Me)2 ([Desaminotyrosyl]GFGG-{N(Me)2}) | 0.12 | 0.16 | – | – |
| desamino[Tyr^10]OGP(10-14)—NH2 ([Desaminotyrosyl]GFGG-NH2; SMILES NC(=O)CNC(=O)CNC(=O)[C@H](Cc1ccccc1)NC(=O)CNC(=O)CCc1ccc(O)cc1) | 0.20 | 0.16 | – | – |
| desamino[Tyr^10]OGP(10-14)—NHMe ([Desaminotyrosyl]GFGG-NHMe; SMILES CNC(=O)CNC(=O)CNC(=O)[C@H](Cc1ccccc1)NC(=O)CNC(=O)CCc1ccc(O)cc1) | 0.18 | 0.16 | – | – |
| desamino[Tyr^10]OGP(10-14)—OMe ([Desaminotyrosyl]GFGG-OMe; SMILES COC(=O)CNC(=O)CNC(=O)[C@H](Cc1ccccc1)NC(=O)CNC(=O)CCc1ccc(O)cc1) | 0.51 | 0.36 | higher than 50% | less than 50% |
| desamino[Tyr^10]OGP(10-14)—ol ([Desaminotyrosyl]GFGG-ol) | 0.24 | 0.28 | – | – |
